In patent US7851445B2, “Angiogenic heparin-binding epitopes, peptide amphiphiles, self-assembled compositions and related methods of use” (Northwestern University, priority 2005, dated 2010):
Where a SMILES comes first, the peptide text is derived from it. The star is where a group is joined. Palmitoyl = CCCCCCCCCCCCCCCC(=O)*

Assays:
Solubility in water = assay type: physicochemical
[1] = Isothermal titration calorimetry of heparin into HBPA solution; conditions: ITC, heparin titrated into HBPA in water, fit for a single type of binding site
Description: Isothermal titration calorimetry was used to titrate increments of heparin independently into both the HBPAs and measured the heat released upon binding as a function of the molar ratio. The data obtained was integrated and fitted to a nonlinear function as previously described (Fromm, J. R., et al, “Differences in the Interaction of Heparin with Arginine and Lysine and the Importance of These Basic-Amino-Acids in the Binding of Heparin to Acidic Fibroblast Growth-Factor” Arch. Biochem. Biophys. 323 (1997) 279) to obtain an association constant of 10^7 in both cases (see FIGS. 3E and 3F). Despite similarity in their binding constants, the binding interaction of HBPA-1 and HBPA-2 were energetically very different. […] Such results can be explained with reference to their respective structures. HBPA-1 has hydrophobic residues on the periphery of its peptide chain and the increase in entropy is possibly due to displacement of solvent water molecules from these residues upon heparin interaction.
Characterization of the self-assembly. […] The images were analyzed using the Leica LCS imaging software. […] A frequency sweep experiment was performed at 3% strain with a ten-minute wait time (both determined by independently performing an amplitude sweep and a time strain experiment) to obtain 17 data points between angular frequencies of 0.1 to 10 rad/s. […]

| Structure (SMILES) | solubility in water (Solubility in water) | association constant [1] |
| --- | --- | --- |
| CCCCCCCCCCCCCCCC(=O)N[C@@H](C)C(=O)N[C@@H](C)C(=O)N[C@@H](C)C(=O)N[C@@H](C)C(=O)NCC(=O)NCC(=O)NCC(=O)N[C@@H](CC(C)C)C(=O)N[C@@H](CCCNC(=N)N)C(=O)N[C@@H](CCCCN)C(=O)N[C@@H](CCCCN)C(=O)N[C@@H](CC(C)C)C(=O)NCC(=O)N[C@@H](CCCCN)C(=O)N[C@@H](C)C(N)=O [HBPA-1] (Palmitoyl-AAAAGGGLRKKLGKA-NH2) | readily soluble in water | 10^7 |
| CCCCCCCCCCCCCCCC(=O)N[C@@H](C)C(=O)N[C@@H](C)C(=O)N[C@@H](C)C(=O)N[C@@H](C)C(=O)NCC(=O)NCC(=O)NCC(=O)N[C@@H](CC(C)C)C(=O)N[C@@H](CC(C)C)C(=O)NCC(=O)N[C@@H](C)C(=O)N[C@@H](CCCNC(=N)N)C(=O)N[C@@H](CCCCN)C(=O)N[C@@H](CCCCN)C(=O)N[C@@H](CCCCN)C(N)=O [HBPA-2] (Palmitoyl-AAAAGGGLLGARKKK-NH2) | readily soluble in water | 10^7 |
